Oral activity data for 1 molecule are collected here from patent EP0286364B1, “Substituted Di-t-Butylphenols” (RIKER LABORATORIES, INC., priority 1987, dated 1988).

This experiment deals with male Hartley strain guinea pigs. Description: Konzett-Rossler in vivo test, antigen challenge of sensitized guinea pigs. The following applies: dosed orally, about 5 to 40 mg/kg, suspension in 4% aqueous acacia; ovalbumin 300 µg/kg intravenously 30 minutes later; bronchoconstrictor response. How it is done: The oral activity of compounds of Formula I may be demonsrated using the Konzett-Rossler in vivo test method. The activity is determined according to the procedure which follows. The Konzett-Rossler technique (H.Konzett and R. Rossler, Naunyn-Schmiedbergs Arch. Pharmakol., 195, 71-74, 1940 is used to assess the effect of compounds of Formula I of the invention on antigen challenge of male Hartley strain guinea pigs (350-500g). Fourteen days after sensitization with ovalbumin (50 mg/kg intraperitoneally) guinea pigs are anesthetized with pentobarbital (70 mg/kg intraperitoneally) and spontaneous respiration is eliminated with succinylcholine (2 mg/kg intra-peritoneally). The trachea is cannulated and respiration is maintained under positive pressure with a minature ventilator (5 ml/breath, 87 breaths/minute, 10 cm water). Bronchoconstrictor responses are represented as increased excursions of the tracing on a physiological recorder of air overflow to the lungs measured by a pneumotachograph in series with a differential pressure transducer. The guinea pigs are pretreated with an antihistamine, for example, chlorpheniramine, and are then dosed orally at a level of about 5 to 40 mg/kg with a suspension of a compound of Formula I of the invention in 4% aqueous acacia. The animals are challenged with ovalbumin (300 »g/kg intravenously) thirty (30) minutes later.

Take `CC(C)(C)c1cc(C(=O)Nc2cccc(-c3nnn[nH]3)c2)cc(C(C)(C)C)c1O.O` [Example 7, 5-[3-(3,5-di-t-butyl-4-hydroxybenzamido)phenyl]tetrazole hydrate]: the oral activity result is listed as “good oral activity”.
